Results reported in publication PMC5974162, “Characterization of Ferredoxin-Dependent Biliverdin Reductase PCYA1 Reveals the Dual Function in Retrograde Bilin Biosynthesis and Interaction With Light-Dependent Protochlorophyllide Oxidoreductase LPOR in Chlamydomonas reinhardtii” (Frontiers in Plant Science, 2018).

Target: T1, DtenPHY1 (Dolichomastix tenuilepis, UniProt A0A097CKJ3)
T1 construct: gene PHY; Twin-Strep-tag kept; expressed in Chlamydomonas CC400 cytosol, also in E. coli LMG194/pPL-PCB as control
Test: zinc-dependent fluorescence of SDS-PAGE blot
Format: binding
Details: covalent; in vitro assembly with added PCB, TES pH 8.0, room temperature, ~2 h, dark; also without added PCB

T1 sequence (A0A097CKJ3 entry or part of it): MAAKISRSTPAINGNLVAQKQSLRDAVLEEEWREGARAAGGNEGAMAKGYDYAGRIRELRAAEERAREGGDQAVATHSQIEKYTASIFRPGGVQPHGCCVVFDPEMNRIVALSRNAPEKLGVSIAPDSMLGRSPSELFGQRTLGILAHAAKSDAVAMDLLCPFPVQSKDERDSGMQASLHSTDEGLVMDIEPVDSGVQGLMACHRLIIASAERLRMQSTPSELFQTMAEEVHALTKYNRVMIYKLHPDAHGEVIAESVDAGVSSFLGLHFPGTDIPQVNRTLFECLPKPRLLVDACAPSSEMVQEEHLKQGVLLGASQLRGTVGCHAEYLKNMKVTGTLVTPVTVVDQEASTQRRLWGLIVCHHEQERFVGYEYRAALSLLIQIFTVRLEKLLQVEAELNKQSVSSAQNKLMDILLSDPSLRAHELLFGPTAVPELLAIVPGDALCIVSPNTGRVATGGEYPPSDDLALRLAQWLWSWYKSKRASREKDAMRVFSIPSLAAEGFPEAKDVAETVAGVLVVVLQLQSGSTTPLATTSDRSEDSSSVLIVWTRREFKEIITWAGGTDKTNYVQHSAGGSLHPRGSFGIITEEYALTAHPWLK

## CC=C1C(=Cc2[nH]c(C=C3N=C(C=C4NC(=O)C(CC)=C4C)C(C)=C3CCC(=O)O)c(CCC(=O)O)c2C)NC(=O)C1C (stereo not shown) [PCB, phycocyanobilin]
  zinc-dependent fluorescence of SDS-PAGE blot: DtenPHY1 purified from Chlamydomonas CC400 covalently binds phycocyanobilin (PCB)
